pIC50: −log10 of the molar value. Active and inactive are the calls of the source. How the calls were made is not given here.
What follows are compounds tested on Jurkat NF-kB reporter, luminescence (assay: Jurkat NF-kB signaling inhibitors – cell-based, luminescence, selectivity assay for B-cell receptor NF-kB inhibitor project, dose response (AID 489006)).

SMILES	IC50	pIC50
CCOc1ccc(S(=O)(=O)NCc2ccncc2)cc1NC(=O)c1ccccc1	> 80 µM (inactive)	
CCCCCOc1ccc(NC(=O)C(=O)NCCCn2ccnc2)cc1	> 80 µM (inactive)	
CCCCCC/C=C/c1ccc(OC)c([C@H]2[C@H]3C=CC[C@@H](C)[C@@H]3C(=O)N2Cc2ccccc2)c1	> 80 µM (inactive)	
COc1ccc(-c2ccc(N(C)C)cc2)cc1[C@H]1[C@H]2C=CC[C@@H](C)[C@@H]2C(=O)N1Cc1ccccc1	> 80 µM (inactive)	
CC(C)(C)c1ccc(-c2noc(CCC(=O)Nc3cccnc3)n2)cc1		> 6.80
COc1ccc(NC(=S)NCc2ccccc2)c(OC)c1	> 80 µM (inactive)	
N=c1ccn(Cc2ccccc2Cl)cc1	> 80 µM (inactive)	
Cc1c(CCC(=O)O)c(=O)oc2cc3oc4c(c3cc12)CCCC4		5.13
O=C(N/N=C/c1ccc(Cl)cc1Cl)c1ccc(-n2cnnn2)cc1	> 80 µM (inactive)	
Oc1cc(O)cc(-c2cc3ccc(O)cc3o2)c1	> 80 µM (inactive)	
Cn1c(=O)n(C)c2cc(C(=O)Nc3ccc4c(c3)OCO4)ccc21	> 80 µM (inactive)	
Cc1ccc(/C=C2\SC(=S)N(CCCC(=O)NNC(=O)c3ccccc3O)C2=O)cc1		6.05
Cc1nn(C(C)(C)C)c(OC(=O)c2ccc(Br)o2)c1Sc1ccccc1	> 80 µM (inactive)	
COc1ccccc1/C=C1/SC(=S)N(CCC(=O)Nc2cccnc2)C1=O	> 80 µM (inactive)	
O=C(CCCN1C(=O)/C(=C/c2ccccc2Cl)SC1=S)NNC(=O)c1ccccc1		5.28
Cc1nc2cc(-c3ccccc3)nn2c(C)c1CCC(=O)NCc1ccco1	> 80 µM (inactive)	
Cc1ccc(/C=C2\SC(=S)N(CCC(=O)NNC(=O)c3ccncc3)C2=O)cc1	> 80 µM (inactive)	
O=C(CCl)N1CCN(S(=O)(=O)c2ccc3c(c2)CCC3)CC1		5.67
CC(C)(C)c1ccc(-c2cc(N)n[nH]2)cc1		5.22
COc1ccc(CC(=O)Nc2cccc(-c3ccc4nnc(C)n4n3)c2)cc1	> 80 µM (inactive)	

SMILES	IC50	pIC50
COc1cc2c3c(c1)c(N=NC(N)=S)c(O)n3C(C)(C)C=C2C	> 80 µM (inactive)	
Cc1ccc(C)c(-n2nnnc2Sc2nnnn2-c2ccccc2)c1		5.85
O=C(Oc1cccc(/C=N/Nc2nc(Nc3ccccc3)nc(N3CCOCC3)n2)c1)c1ccco1	> 80 µM (inactive)	
COc1ccc(NC(=O)c2cc(-c3ccccn3)nc3ccccc23)cc1S(=O)(=O)N(C)C	26.6 µM (inactive)	
COc1ccc(S(=O)(=O)Nc2cc3c(C(C)=O)c(C)oc3c3ccccc23)cc1	> 80 µM (inactive)	
Cc1cc(C)c2nc(NC(=O)C3CSC4(C)CCC(=O)N34)sc2c1 (stereo not given)	76.5 µM (inactive)	
CCc1ccc2[nH]c3nc(N/N=C/c4cccc(O)c4)nnc3c2c1	> 80 µM (inactive)	
O=C(Nc1nc2c(Br)cc(Br)cc2c(=O)s1)c1ccco1		5.60
Cc1ccc(-c2nn3c(C)nnc3c3ccccc23)cc1S(=O)(=O)NCCN1CCOCC1	> 80 µM (inactive)	
Cn1c(=NC(=O)CCl)sc2ccccc21		5.93
CCN(CC)c1ccc(/C=C2/C(=O)ON=C2C)cc1		4.71
CCN(CC)S(=O)(=O)c1ccc(N2CCOCC2)c(NC(=O)c2[nH]c(C)c(C(C)=O)c2C)c1	47 µM (inactive)	
CC(C)C(=O)Nc1ccc(NC(=O)c2ccc3c(c2)OCO3)cc1	> 80 µM (inactive)	
Cc1cc(C)cc(N2C(=O)NC(=O)/C(=C\c3cccn3-c3ccccc3)C2=O)c1		4.79
CCN1C(=O)c2cccc3c(S(=O)(=O)Nc4ccccn4)ccc1c23	40.5 µM (inactive)	
Cc1nnc2c3ccccc3c(-c3ccccc3)nn12	> 80 µM (inactive)	
Cc1ccccc1-n1c(SCc2c(C)noc2C)nnc1-c1c[nH]c2ccccc12	> 80 µM (inactive)	
Cc1cnc(NC(=O)Nc2ccc(Cl)cc2)s1	> 80 µM (inactive)	
COc1ccc(OC)c(S(=O)(=O)Nc2ccc(-c3ccc4nnc(C)n4n3)cc2)c1		4.94
Cc1ccc(S(=O)(=O)Nc2ccc3c(c2)n(C)c(=O)n3C)cc1	73 µM (inactive)	

From PubChem BioAssay AID489006 (Sanford-Burnham Center for Chemical Genomics, 2010)
